Test results from PMC10250618, “Synthesis, structure-activity relationships and biological evaluation of benzimidazole derived sulfonylurea analogues as a new class of antagonists of P2Y1 receptor” (Frontiers in Pharmacology, 2023).
Read-outs that look alike come from different tables or passages of the source.

Assays:
[1] = target: T1, t-P2Y1 (Meleagris gallopavo, UniProt P49652); assay: Calcium mobilization assay, t-P2Y1 transfected 1321N1 astrocytoma cells; type: cell-based
T1 construct: host or cells: human 1321N1 astrocytoma cells, stably transfected
T1 sequence (P49652 whole entry): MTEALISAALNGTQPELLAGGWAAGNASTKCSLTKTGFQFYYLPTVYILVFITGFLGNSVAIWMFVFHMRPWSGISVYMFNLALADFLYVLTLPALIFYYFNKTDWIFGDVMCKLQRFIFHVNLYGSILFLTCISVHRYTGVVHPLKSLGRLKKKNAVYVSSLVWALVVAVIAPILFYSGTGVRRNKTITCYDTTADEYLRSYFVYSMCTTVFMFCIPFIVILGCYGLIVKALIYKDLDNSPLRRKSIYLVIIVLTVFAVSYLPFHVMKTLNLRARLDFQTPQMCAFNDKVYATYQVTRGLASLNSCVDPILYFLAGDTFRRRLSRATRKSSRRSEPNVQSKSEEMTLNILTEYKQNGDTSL
Procedure: (§1) Dr. Gary A. Weisman provided human-1321N1 astrocytoma cells that had been transfected by the tP2Y1R, hP2Y2R, hP2Y4R, and rP2Y6R and untransfected 1321N1 astrocytoma cells (University of Missouri Mo., Bond Life Science Center). The DMEM Dulbecco’s Modified Eagle -Medium (Gibco) was added in flasks to cultivate the cell line. 10% of the Fetal bovine serum was also added to the media together with 500 μg/mL of Geneticin (G418) and 1% of the Pen/Strep. The cells in T-75 flask were then cultured and incubated in a CO2 incubator which was maintained at (5%) and 37°C temperature until 90% of the cells were confluent. Throughout the experiment, cells were periodically checked for the confluency and strictly watched for the microbial contamination.
(§2) The FLUOstar Galaxy (BMG LABTECH GmbH, Ortenberg, Germany) microplate reader with two injectors was used to measure the Ca^2+ fluorescence of synthetic compounds. For this assay, 1321N1 transfected cells (t-P2Y1, h-P2Y2, h-P2Y4, and r-P2Y6) were cultured in T-75 flask. When cells reached the confluency of 80%–90%, they were washed with PBS and then Trypsin was added. After trypsinization for 3 min, 20,000 cells/well were allowed to seed in a black wall and 96 well clear bottom plate which was coated with Poly-D-Lysine and allowed to incubate for 24 h in 37°C, 5% CO2 incubator. After incubation, 200 μL culture media was changed with 100 μL HBSS containing Fura-2 AM which is calcium chelating dye and allowed the plate to incubate for 45 min in dark at temp of 37°C in incubator which is maintained with carbon dioxide (5% CO2). After incubation for 45 min, synthesized molecules were added to HBSS washed cells in each well of 96 well plate and re-incubated for 30 min at 37°C. In next step, injection of the endogenous ligand such as ADP through the injector was followed by excitation and emission measurements of Fura-2 AM at 380/520 nm and 340/520. Final volume of the assay per well 200 μL. IC50 values were computed for the compounds displaying more than 50% of activity using Prism 5.0 software (Graph Pad., Inc., San Diego. California, United States) by using analysis i.e., nonlinear regression ([Kassack et al., 2002]; [Ullmann et al., 2005]).

[2] = target: T2, h-P2Y2 (Homo sapiens, UniProt P41231); assay: Calcium mobilization assay, h-P2Y2 transfected 1321N1 astrocytoma cells; type: cell-based; settings: for inhibition at 100 µM: 1321-N1, final conc of 100 μM
T2 construct: host or cells: human 1321N1 astrocytoma cells, stably transfected
T2 sequence (P41231 whole entry): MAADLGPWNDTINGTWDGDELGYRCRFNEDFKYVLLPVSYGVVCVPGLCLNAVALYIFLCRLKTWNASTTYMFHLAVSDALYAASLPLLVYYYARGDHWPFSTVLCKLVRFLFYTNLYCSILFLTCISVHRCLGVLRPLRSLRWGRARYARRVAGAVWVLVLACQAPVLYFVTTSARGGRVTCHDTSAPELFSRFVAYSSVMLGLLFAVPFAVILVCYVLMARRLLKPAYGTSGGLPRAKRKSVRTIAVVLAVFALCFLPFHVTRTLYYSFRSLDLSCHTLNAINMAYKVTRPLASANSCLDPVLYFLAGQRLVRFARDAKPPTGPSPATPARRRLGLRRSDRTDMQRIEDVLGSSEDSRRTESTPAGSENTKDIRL
Procedure: as §1, §2

[3] = MTT assay, HeLa; type: cell-based; settings: human, HeLa cells; at 50 µM; triplicate; read-out: HeLa Cell Line (%cytotoxicity ±SEM)
[4] = target: T3, r-P2Y6 (Rattus norvegicus, UniProt Q63371); assay: Calcium mobilization assay, r-P2Y6 transfected 1321N1 astrocytoma cells; type: cell-based; settings: for inhibition at 100 µM: 1321-N1, final conc of 100 μM
T3 construct: host or cells: human 1321N1 astrocytoma cells, stably transfected
T3 sequence (Q63371 whole entry): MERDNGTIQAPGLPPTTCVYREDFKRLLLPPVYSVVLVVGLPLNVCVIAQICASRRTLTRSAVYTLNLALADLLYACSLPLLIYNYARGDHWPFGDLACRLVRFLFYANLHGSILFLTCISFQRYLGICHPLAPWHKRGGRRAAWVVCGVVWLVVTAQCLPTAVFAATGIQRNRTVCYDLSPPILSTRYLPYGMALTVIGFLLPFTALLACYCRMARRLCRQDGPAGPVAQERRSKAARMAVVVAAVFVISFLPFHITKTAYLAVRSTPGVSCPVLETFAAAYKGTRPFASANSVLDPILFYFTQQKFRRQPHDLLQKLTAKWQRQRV
Procedure: as §1, §2

[5] = MTT assay, non-transfected 1321N1 astrocytoma cells; type: cell-based, human; settings: human, non-transfected 1321N1 astrocytoma cells; at 50 µM; non-transfected astrocytoma 1321N1 cells; triplicate; read-out: H-1321N1 Cell Line (%cytotoxicity ±SEM)
Procedure: A 96-well plate was used to plate 20,000 human 1321N1 astrocytoma cells and allowed for incubation for 24 h at temp of 37°C in CO2 (5%) incubator. Next to this, the prepared culture media was changed to media which was free from FBS, the test compounds were added and the incubation process was repeated. After incubation of 24 h, the serum free media from the wells was discarded, and 100 μL of the reagent i.e., MTT reagent was pipetted. Plate was then additionally incubated at 37°C for 4 h. Utilizing a microplate reader, absorbance was determined at 570 nm and 630 nm for calculation of cell viability (FLUOstarOmega Microplate Reader-BMG LABTECH GmbH, Ortenberg, Germany) ([Sauer et al., 2009]).

[6] = MTT assay, HEK-293; type: cell-based; settings: human, HEK-293 cells; at 50 µM; triplicate; read-out: HEK-293 Cell Line (%cytotoxicity ±SEM)
[7] = target: T4, h-P2Y4 (Homo sapiens, UniProt P51582); assay: Calcium mobilization assay, h-P2Y4 transfected 1321N1 astrocytoma cells; type: cell-based
T4 construct: host or cells: human 1321N1 astrocytoma cells, stably transfected
T4 sequence (P51582 whole entry): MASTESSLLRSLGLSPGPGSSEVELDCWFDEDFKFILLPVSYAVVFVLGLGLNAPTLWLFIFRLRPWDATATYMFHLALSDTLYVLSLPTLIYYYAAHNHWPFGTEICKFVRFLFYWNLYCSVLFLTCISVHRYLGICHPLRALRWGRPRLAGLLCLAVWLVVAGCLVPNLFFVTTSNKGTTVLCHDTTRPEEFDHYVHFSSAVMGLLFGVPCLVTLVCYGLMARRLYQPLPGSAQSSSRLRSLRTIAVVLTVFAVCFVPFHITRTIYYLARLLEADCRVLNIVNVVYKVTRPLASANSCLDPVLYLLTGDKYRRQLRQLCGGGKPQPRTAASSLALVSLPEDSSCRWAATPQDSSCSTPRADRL
Procedure: as §1, §2

[8] = Ca2+ mobilization inhibition, transfected 1321N1 cells, 100 μM ADP, read-out: IC50 ± SEM t-P2Y1
[9] = Ca2+ mobilization inhibition, transfected 1321N1 cells, 100 μM of UDP, read-out: IC50 ± SEM r-P2Y6
[10] = 1321-N1, final conc of 100 μM, 500 μM UTP, read-out: % Inhibition h-P2Y4
[11] = Ca2+ mobilization inhibition, transfected 1321N1 cells, 500 μM ATP, read-out: IC50 ± SEM h-P2Y2

| Structure (SMILES) | IC50 [1, 8] [nM] | melting point [°C] | inhibition at 100 µM ([2]; 500 μM ATP) [%] | IC50 [4, 9] [µM] | inhibition at 100 µM [7, 10] [%] | inhibition at 100 µM ([4]; 100 μM of UDP) [%] | IC50 [2, 11] [µM] | IC50 ([7]; Ca2+ mobilization inhibition, transfected 1321N1 cells, 500 μM UTP, read-out: IC50 ± SEM h-P2Y4) [nM] | cytotoxicity at 24 h, 50 µM [3] [%] | cytotoxicity at 24 h, 50 µM [5] [%] | cytotoxicity at 24 h, 50 µM [6] [%] | inhibition at 100 µM ([1]; 1321-N1, final conc of 100 μM, 100 μM ADP) [%] | IC50 [1] [nM] | IC50 [2] [µM] | IC50 [4] [µM] | inhibition at 100 µM ([7]; 1321-N1, read-out: % Inhibition h-P2Y4) [%] | decreased potency relatively to the derivative 1h ([1]; P2Y1) |
| --- | --- | --- | --- | --- | --- | --- | --- | --- | --- | --- | --- | --- | --- | --- | --- | --- | --- |
| Nc1nc2cc([N+](=O)[O-])ccc2n1C(=O)NS(=O)(=O)c1cc(Cl)cc(Cl)c1O [1a, 2-Amino-N-((3,5-dichloro-2-hydroxyphenyl)sulfonyl)-5-nitro-1H-benzo [d]imidazole-1-carboxamide] | 370 ± 20 | 107 to 110 | 44 | 0.66 ± 0.04 | 41 | – | – | – | 22.2 ± 1.1 | 27.4 ± 0.5 | 13.3 ± 0.1 | – | – | – | – | – | – |
| Cc1ccc(S(=O)(=O)NC(=O)n2c(N)nc3cc([N+](=O)[O-])ccc32)cc1 [1b, 2-Amino-5-nitro-N-tosyl-1H-benzo [d]imidazole-1-carboxamide] | – | 113 to 115 | 38 | – | 18 | 21 | – | – | 21.6 ± 0.2 | 17.3 ± 0.8 | 21.3 ± 0.2 | 33 | – | – | – | – | – |
| Cc1ccc([N+](=O)[O-])cc1S(=O)(=O)NC(=O)n1c(N)nc2cc([N+](=O)[O-])ccc21 [1c, 2-Amino-N-((2-methyl-5-nitrophenyl)sulfonyl)-5-nitro-1H-benzo [d]imidazole-1-carboxamide] | – | 117 to 119 | – | – | – | – | – | – | 26.4 ± 0.7 | 21.1 ± 0.6 | 19.5 ± 0.4 | – | 11110 ± 40 | 6.32 ± 1.1 | 16.1 ± 0.59 | 42 | – |
| Nc1nc2ccccc2n1C(=O)NS(=O)(=O)c1cc(Cl)cc(Cl)c1O [1e, 2-Amino-N-((3,5-dichloro-2-hydroxyphenyl)sulfonyl)-1H-benzo [d]imidazole-1-carboxamide] | 460 ± 10 | 115 to 117 | – | 0.75 ± 0.08 | – | – | 5.5 ± 1.21 | 600 ± 10 | 21.3 ± 0.6 | 39.9 ± 0.2 | 16.3 ± 0.2 | – | – | – | – | – | – |
| Nc1nc2ccccc2n1C(=O)NS(=O)(=O)c1ccc(Cl)cc1 [1f, 2-Amino-N-((4-chlorophenyl)sulfonyl)-1H-benzo [d]imidazole-1-carboxamide] | 940 ± 10 | 110 to 112 | – | 9.3 ± 1.12 | 47 | – | 8.41 ± 0.07 | – | 16.4 ± 0.2 | 23.6 ± 0.8 | 21.2 ± 0.7 | – | – | – | – | – | about five |

Further lines, with some results ahead:

| IC50 [1, 8] [nM] | melting point [°C] | inhibition at 100 µM ([2]; 500 μM ATP) [%] | IC50 [4, 9] [µM] | inhibition at 100 µM [7, 10] [%] | inhibition at 100 µM ([4]; 100 μM of UDP) [%] | IC50 [2, 11] [µM] | IC50 ([7]; Ca2+ mobilization inhibition, transfected 1321N1 cells, 500 μM UTP, read-out: IC50 ± SEM h-P2Y4) [nM] | Structure (SMILES) | cytotoxicity at 24 h, 50 µM [3] [%] | cytotoxicity at 24 h, 50 µM [5] [%] | cytotoxicity at 24 h, 50 µM [6] [%] | inhibition at 100 µM ([1]; 1321-N1, final conc of 100 μM, 100 μM ADP) [%] | IC50 [1] [nM] | IC50 [2] [µM] | IC50 [4] [µM] | inhibition at 100 µM ([7]; 1321-N1, read-out: % Inhibition h-P2Y4) [%] | decreased potency relatively to the derivative 1h ([1]; P2Y1) |
| --- | --- | --- | --- | --- | --- | --- | --- | --- | --- | --- | --- | --- | --- | --- | --- | --- | --- |
| 11200 ± 710 | 183 to 184 | 33 | – | 13 | 40 | – | – | Cc1ccc([N+](=O)[O-])cc1S(=O)(=O)NC(=O)n1c(N)nc2ccccc21 [1g, 2-Amino-N-((2-methyl-5-nitrophenyl)sulfonyl)-1H-benzo [d]imidazole-1-carboxamide] | 11.6 ± 1.1 | 46.2 ± 0.2 | 14.3 ± 0.3 | – | – | – | – | – | – |
| 1210 ± 70 | 129 to 131 | – | – | 34 | 41 | 15.7 ± 1.48 | – | Nc1nc2cc(Cl)ccc2n1C(=O)NS(=O)(=O)c1ccc(Cl)cc1 [1i, 2-Amino-5-chloro-N-((4-chlorophenyl)sulfonyl)-1H-benzo [d]midazole-1-carboxamide] | 39.3 ± 0.4 | 38.7 ± 0.8 | 36.2 ± 0.1 | – | – | – | – | – | – |
